Experiment [1] deals with S. cerevisiae strain A (AfCyp51A-6×His, native ScCyp51 retained). Put plainly: MIC80 susceptibility, strain A. The experiment is classed as cell-based. Particulars: Saccharomyces cerevisiae, Table 2, SD pH 6.8, 48 h, 30 °C. The protocol: (§1) The susceptibilities of S. cerevisiae strains to antifungal drugs were determined as minimum growth inhibitory concentration (MIC) values in 200 μL SD pH 6.8 [24]. Serial 2-fold dilutions of 100 μL of azole or control drugs in SD pH 6.8 were prepared in a 96-well microtiter plate. A portion of a 2 mL SD pH 6.8 overnight culture of the test strain was inoculated into 3 mL fresh SD pH 6.8 and incubated for 4 to 6 h at 30 °C to generate logarithmic-phase cells. These cells were then diluted with fresh SD pH 6.8 to OD600nm = 0.01 (3 × 10^4 CFU), and 100 μL of this cell suspension was added to microtiter plate wells. Cell growth after 48 h incubation at 30 °C with shaking at 200 rpm was determined at 600 nm using a BioTek™ Synergy™ 2 multi-Mode microplate reader controlled using Gen5™ Data Analysis Software version 3.16.10 (BioTek Instruments, Winooski, VT, USA). MIC80 values (80% growth inhibition in the presence of the test drug compared with the untreated control) for each yeast construct were determined as technical triplicates repeated three times for three separate clones.

Experiment [2] deals with S. cerevisiae strain ARE I301T (AfCyp51A-6×His I301T, AfCprA2, AfErg6-FLAG). Nature of the experiment: MIC80 susceptibility, strain I301T. Particulars: for MIC80: ± SD. The experiment is classed as cell-based, Saccharomyces cerevisiae. The protocol: as §1
Experiment [3] concerns S. cerevisiae strain BRE (AfCyp51B-6×His, AfCprA2, AfErg6-FLAG). Put plainly: MIC80 susceptibility, strain BRE. The experiment is classed as cell-based, Saccharomyces cerevisiae. Particulars: for MIC80: strain BRE, ± SD. The protocol: as §1
For experiment [4], the system named is S. cerevisiae strain ARE Y121F (AfCyp51A-6×His Y121F, AfCprA2, AfErg6-FLAG). Nature of the experiment: MIC80 susceptibility, strain Y121F. The experiment is classed as cell-based, Saccharomyces cerevisiae. Particulars: for MIC80: Saccharomyces cerevisiae, ± SD, read-out: MIC80. The protocol:
as §1

The target in experiment [5] is T1, AfCYP51B-6×His (Aspergillus fumigatus, UniProt E9QY26).
T1 sequence (E9QY26 1-524): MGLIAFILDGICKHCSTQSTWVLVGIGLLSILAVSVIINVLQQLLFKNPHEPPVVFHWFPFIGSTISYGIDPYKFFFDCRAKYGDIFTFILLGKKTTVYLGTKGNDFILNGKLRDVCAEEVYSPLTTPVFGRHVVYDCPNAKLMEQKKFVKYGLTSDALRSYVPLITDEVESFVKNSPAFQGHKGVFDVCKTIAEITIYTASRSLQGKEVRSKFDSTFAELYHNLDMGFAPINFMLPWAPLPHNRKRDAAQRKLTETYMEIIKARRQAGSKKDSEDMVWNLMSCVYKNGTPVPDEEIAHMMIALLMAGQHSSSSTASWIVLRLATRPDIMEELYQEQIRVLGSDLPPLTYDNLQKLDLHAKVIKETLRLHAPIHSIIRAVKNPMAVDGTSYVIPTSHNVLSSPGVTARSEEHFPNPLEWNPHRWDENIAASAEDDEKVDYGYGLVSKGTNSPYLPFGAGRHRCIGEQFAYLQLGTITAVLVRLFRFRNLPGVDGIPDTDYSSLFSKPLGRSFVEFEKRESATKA
Put plainly: Type II binding of azole drugs (difference spectra). Particulars: for λpeak (type II difference spectrum) / λtrough (type II difference spectrum) / ΔAmax (type II binding) / Kd: 1 μM enzyme; for ΔAmax (type II binding) / Kd: Hill equation; for Hill Number / Kd: type II binding. How it is done:
(§2) The concentration of AfCYP51A and AfCYP51B, purified using Ni-NTA affinity chromatography and used for the spectrophotometric type I and type II binding assays, was calculated using an extinction co-efficient of λ417nm = 117 mM^−1 cm^−1 applied to the absolute absorption spectrum of the preparations. In addition, the amount of “active” cytochrome P450 enzyme was determined using the carbon monoxide (CO) binding spectra of these preparations.
(§3) Type II binding difference spectra were obtained using 1 μM of affinity-purified CYP51 enzymes. VCZ, PCZ, VT-1161, DCZ, and MCF working solutions were prepared in DMSO, while FLC was prepared in Milli-Q water. Azole drugs were added to the sample cuvette, and corresponding amounts of DMSO or Milli-Q water were added to the reference cuvette. Drug binding curves were plotted using the difference spectrum peak and trough detected in the range of 410–425 nm. Dissociation constants (Kd) were determined by nonlinear regression (Levenberg–Marquardt algorithm) of the difference in absorbance between the peak and trough against the azole concentration using a rearrangement of the Morrison equation or the Hill equation [7]. GraphPad Prism 9.2.0 software was used to identify the best fit for the data.

Experiment [6] addresses AfCYP51A-6×His (Aspergillus fumigatus, UniProt Q4WNT5). The description is as above. Particulars: for λpeak (type II difference spectrum) / λtrough (type II difference spectrum) / ΔAmax (type II binding) / Hill Number / Kd: AfCYP51A; for λpeak (type II difference spectrum) / λtrough (type II difference spectrum) / ΔAmax (type II binding) / Kd: 1 μM enzyme; for ΔAmax (type II binding) / Kd: Hill equation. How it is done: as §2, §3

Experiment [7] deals with S. cerevisiae Y2305 ADΔΔ CYP51 T322I (ScCYP51 T322I). Nature of the experiment: MIC80 susceptibility, strain Y2305 (Table S1). The experiment is classed as cell-based, Saccharomyces cerevisiae. Particulars: Saccharomyces cerevisiae, read-out: MIC80. How it is done: as §1, with “clones. […]” for “clones.”
Table S1. Azole susceptibilities of ScCYP51 and ScCYP51 T322I expressed
Data for each strain was obtained for […] in three biological replicates.

Experiment [8] concerns S. cerevisiae strain ADΔΔ (native ScCYP51). Nature of the experiment: MIC80 susceptibility, host strain ADΔΔ. The experiment is classed as cell-based. Particulars: Saccharomyces cerevisiae, Table 2, SD pH 6.8, 48 h, 30 °C. How it is done:
as §1

The mark [9] stands for this setting: Saccharomyces cerevisiae, 48 h, pH 6.8, Table 2, strain I301T, SD pH 6.8, 48 h, 30 °C, read-out: MIC80.
The mark [10] stands for this setting: Saccharomyces cerevisiae, Table 2, SD pH 6.8, 48 h, 30 °C, read-out: MIC80.
Setting [11] is: Table 2, strain Y121F, SD pH 6.8, 48 h, 30 °C.

Where “and” joins values, the source holds several entries; their conditions need not be identical. Equal values may be shown once. Read-outs that look alike come from different tables or passages of the source. A value given as a limit tells only on which side of the number the result lay.

Consider 2 compounds from paper PMC11678245, “The Molecular Basis of the Intrinsic and Acquired Resistance to Azole Antifungals in Aspergillus fumigatus” (Journal of Fungi, 2024).

Sequence of AfCYP51A-6×His (Q4WNT5 whole entry): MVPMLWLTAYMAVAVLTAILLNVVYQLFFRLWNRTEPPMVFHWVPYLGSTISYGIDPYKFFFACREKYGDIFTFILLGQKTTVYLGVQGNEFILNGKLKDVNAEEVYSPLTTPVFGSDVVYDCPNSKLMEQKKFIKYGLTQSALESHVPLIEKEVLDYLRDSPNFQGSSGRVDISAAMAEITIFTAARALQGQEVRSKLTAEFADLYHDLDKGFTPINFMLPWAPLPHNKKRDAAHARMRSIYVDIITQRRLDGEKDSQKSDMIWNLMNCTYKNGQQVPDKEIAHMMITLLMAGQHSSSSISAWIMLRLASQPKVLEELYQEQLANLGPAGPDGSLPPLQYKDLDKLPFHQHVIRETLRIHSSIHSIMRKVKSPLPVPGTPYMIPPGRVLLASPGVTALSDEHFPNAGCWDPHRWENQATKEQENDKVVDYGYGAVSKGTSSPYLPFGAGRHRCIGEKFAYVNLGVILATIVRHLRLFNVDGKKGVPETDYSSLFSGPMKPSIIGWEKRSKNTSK

A word on the MIC80: it is an inhibitory concentration at the 80% level, which refers to growth in some studies and to a panel of isolates in others. What is called Kd is the constant that tells how readily two partners part at equilibrium. A lower Kd goes with tighter binding. `OC(Cn1cncn1)(Cn1cncn1)c1ccc(F)cc1F` [FLC, fluconazole]: the MIC80 in experiment [1] came to 3.8 ± 0.2 µM; in experiment [2] (setting [9]), 77.2 ± 5.9 µM; in experiment [2] (Saccharomyces cerevisiae, Table 3, strain ARE I301T, read-out: MIC80), 65 ± 14 µM; in experiment [3] (setting [10]), 10 ± 1.4 µM; in experiment [3] (Saccharomyces cerevisiae, Table 3, read-out: MIC80), 3.8 ± 0.9 µM; in experiment [3] (Table 2, SD pH 6.8, 48 h, 30 °C), 10.0 ± 1.4 µM. In addition, the MIC80 in experiment [4] (setting [11]) was found to be 263 ± 31.6 µM; in experiment [4] (Table 3, strain ARE Y121F), 157 ± 33 µM; in experiment [7] it was 6.6 ± 0.2 µM; in experiment [8] it was 3.3 ± 0.2 µM. Also, the “greater susceptibility (MIC80) of strain I301T compared with strain ARE” value in experiment [2] is reported as 3 fold. The “λpeak (type II difference spectrum)” value is 425 nm in experiment [5] and 422 nm in experiment [6]. In addition, the “λtrough (type II difference spectrum)” value in experiment [5] came out at 407 nm; in experiment [6] it was 383 nm. Further, the entries for the “ΔAmax (type II binding)” value in experiment [5] and in experiment [6] were 0.09 and 0.10, respectively. The “Hill Number” value in experiment [5] is recorded as 1.75; in experiment [6] (type II binding) it was 0.72. For the same compound, the equilibrium dissociation constant (Kd) in experiment [5] is 1430 ± 70 nM; in experiment [6] (type II binding), 3230 ± 1130 nM. For the same compound, the “Kd of AfCYP51A relative to AfCYP51B” value in experiment [6] (type II binding) worked out at 2.26 fold.
On to `C[C@@H](c1ncncc1F)[C@](O)(Cn1cncn1)c1ccc(F)cc1F` [VCZ, voriconazole], for which the MIC80 in experiment [1] was 0.08 ± 0.01 µM; in experiment [2] (setting [9]) it was less than 0.12 µM; in experiment [2] (Table 2, strain I301T, SD pH 6.8, 48 h, 30 °C), 0.11 ± 0.00 µM; in experiment [3] (setting [10]), 0.21 ± 0.02 µM; in experiment [4] (setting [11]), 2.07 ± 0.21 µM; in experiment [7], 0.8 ± 0.03 µM. For the same compound, the MIC80 in experiment [8] worked out at 0.06 µM. In addition, the “MIC80 of strain BRE relative to strain ADΔΔ” value in experiment [3] (higher) was 4- to 5 fold. The “increase in resistance (MIC80) of strain Y121F compared with strain ARE” value in experiment [4] was > 8 fold and 8 fold. Moreover, the “λpeak (type II difference spectrum)” value was found to be 427 nm in experiment [5] and 422 nm in experiment [6]. Further, the results for the “λtrough (type II difference spectrum)” value in experiment [5] and in experiment [6] were 410 nm and 392 nm, respectively. For the same compound, the “ΔAmax (type II binding)” value in experiment [5] came out at 0.03; in experiment [6], 0.05. Also, the “Hill Number” value in experiment [5] is 1.12; in experiment [6] (type II binding) it was 1.10. Further, the dissociation constant Kd was 800 ± 310 nM in experiment [5]; 1500 nM and 1520 nM in experiment [6] (type II binding).
